Legend:
[1] = test system: rat peritoneal mesothelial cells; assay: Cytotoxicity study, LDH release; format: cell-based; details: rat PMCs, 72 hours, FIG. 5
Description: The cells were treated with carrier or aliskiren for 72 hours and cell viability was evaluated quantifying the LDH released into the culture medium. The data is expressed as mean±SEM, n=12. * p<0.05 compared to the control (carrier).
(§1) Rat peritoneal mesothelial cells were isolated by enzymatic digestion in accordance with protocols described in Hjelle J T, Golinska B T, Waters D C, et al. Perit Dial Int 1989; 9: 341-7. Briefly, female rats weighing 200-400 g of the Spragle-Dawley strain were sacrificed pursuant to Royal Decree 1201/2005, of 10 Oct., on protection of animals used for experimental and other scientific purposes. The abdominal cavity was quickly opened and the abdominal wall (peritoneum and smooth muscle) extracted under sterile conditions. […]
To this end, the cells were seeded on 24-well plates and exposed to the peritoneal dialysis solutions object of the present invention to study their toxicity. The toxic effects were evaluated measuring cell membrane rupture and the consequent release of LDH to the supernatant through the CytoTox96® kit (Promega). […] Absorbance of the lysate and cell supernatant was obtained using a microplate spectrophotometer at a wavelength of 490 nm, following the manufacturer's instructions.

[2] = test system: caspase-3; assay: Caspase-3 activity (Z-DEVD-AFC fluorescence); format: cell-based; details: rat PMCs, D-glucose 50 mM, 24 hours, aliskiren 10-100 μM, FIG. 7
Description: The cells were incubated in D-glucose at 50 mM for 24 hours in the presence or absence of aliskiren (10-100 μM), and caspase-3 activity was measured as described in Material and Methods. The data is expressed as mean±SEM, n=3. * p<0.05 compared to the control (C). # p<0.05 compared to untreated cells (control). # p<0.05, compared to cells treated with D-glucose in the presence of carrier (0).
as §1, with “purposes.” for “purposes. The abdominal cavity was quickly opened and the abdominal wall (peritoneum and smooth muscle) extracted under sterile conditions.”
In order to determine caspase-3 activity (Posadas I, Vellecco V, Santos P, et al. Br J Pharmacol 2007; 150: 577-85), the rat mesothelial cells were seeded on 6-well plates until reaching a confluence of 80%. […] After incubation, the samples were centrifuged at 13,000 rpm for 15 minutes at 4° C. and the protein concentration in the supernatants was determined using the Bradford method, following the standard protocol. […] Fluorescence emission was determined on a spectrofluorimeter (Tecan, Austria) at an excitation wavelength of 400 nm and an emission wavelength of 505 nm.

For `COCCCOc1cc(C[C@@H](C[C@H](N)[C@@H](O)C[C@H](C(=O)NCC(C)(C)C(N)=O)C(C)C)C(C)C)ccc1OC` [aliskiren], the “concentration at which toxicity with respect to mesothelial cells is shown (LDH released)” value [1] was ≥ 1 mM and the activation of caspase [2] was “prevented”.
